Laboratory results: ChEMBL document CHEMBL5104180, “Design, Synthesis, and Evaluation of New Sugar-Substituted Imidazole Derivatives as Selective c-MYC Transcription Repressors Targeting the Promoter G-Quadruplex” (J Med Chem, 2022)
Blank lines part the entries; values can stand above or below the molecule they belong to.

Key:
Quadruplex DNA [1] = experiment: Stabilization of c-MYC G4 quadruplex DNA Pu22 (unknown origin) assessed as change in melting temperature at 2 uM by CD spectroscopy; type: nucleic-acid assay
RNA = experiment: Binding affinity to NRAS RNA mutant (unknown origin) assessed as binding constant by SPR analysis
Quadruplex DNA [2] = experiment: Binding affinity to c-MYC G4- quadruplex DNA Pu22 (unknown origin) assessed as binding constant by SPR analysis; type: nucleic-acid assay
[3] = Binding affinity to Hairpin DNA (unknown origin) assessed as binding constant by SPR analysis
[4] = Binding affinity to G-rich HRAS DNA (unknown origin) assessed as binding constant by SPR analysis
[5] = Binding affinity to G-rich NRAS RNA (unknown origin) assessed as binding constant by SPR analysis
[6] = Binding affinity to G-rich KRAS DNA (unknown origin) assessed as binding constant by SPR analysis
[7] = Binding affinity to human G-rich Htg22 DNA assessed as binding constant by SPR analysis
Quadruplex DNA [8] = experiment: Binding affinity to c-MYC G4 quadruplex DNA Pu22 (unknown origin) assessed as binding constant by SPR analysis; type: nucleic-acid assay

ΔTm (Quadruplex DNA [1]): 13.4 °C
SMILES: COc1ccc(-n2c(-c3ccc4c(c3)c3ccccc3n4Cc3cn([C@@H]4O[C@H](COC(C)=O)[C@@H](OC(C)=O)[C@H](OC(C)=O)[C@H]4OC(C)=O)nn3)nc(-c3ccc(N4CCN(C)CC4)cc3)c2-c2ccc(N3CCN(C)CC3)cc2)cc1

ΔTm (Quadruplex DNA [1]): 13.3 °C
SMILES: COc1ccc(-n2c(-c3ccc4c(c3)c3ccccc3n4Cc3cn([C@@H]4O[C@H](COC(C)=O)[C@H](OC(C)=O)[C@H](OC(C)=O)[C@H]4OC(C)=O)nn3)nc(-c3ccc(N4CCN(C)CC4)cc3)c2-c2ccc(N3CCN(C)CC3)cc2)cc1 (single isomer, unassigned)

Kd (RNA): > 20 µM
Kd (Quadruplex DNA [2]): 0.8 µM
Kd [3]: > 20 µM
Kd [4]: 2.3 µM
Kd [5]: 5.8 µM
Kd [6]: 2.3 µM
Kd [7]: > 20 µM
Kd (Quadruplex DNA [8]): > 20 µM
ΔTm (Quadruplex DNA [1]): 21.7 °C
SMILES: CCn1c2ccccc2c2cc(-c3nc(-c4ccc(N5CCN(C)CC5)cc4)c(-c4ccc(N5CCN(C)CC5)cc4)n3-c3ccc(OCCOCCO[C@@H]4O[C@H](CO)[C@@H](O)[C@H](O)[C@H]4N)cc3)ccc21 (single isomer, unassigned)

ΔTm (Quadruplex DNA [1]): 13.4 °C
SMILES: COc1ccc(-n2c(-c3ccc4c(c3)c3ccccc3n4Cc3cn(CCOCCO)nn3)nc(-c3ccc(N4CCN(C)CC4)cc3)c2-c2ccc(N3CCN(C)CC3)cc2)cc1

ΔTm (Quadruplex DNA [1]): 14.5 °C
SMILES: CCn1c2ccccc2c2cc(-c3nc(-c4ccc(N5CCN(C)CC5)cc4)c(-c4ccc(N5CCN(C)CC5)cc4)n3-c3ccc(O)cc3)ccc21

ΔTm (Quadruplex DNA [1]): 12.4 °C
SMILES: COc1ccc(-n2c(-c3ccc4c(c3)c3ccccc3n4Cc3cn([C@@H]4O[C@H](CO)[C@H](O)[C@H](O)[C@H]4O)nn3)nc(-c3ccc(N4CCN(C)CC4)cc3)c2-c2ccc(N3CCN(C)CC3)cc2)cc1 (single isomer, unassigned)

Kd (RNA): > 20 µM
Kd (Quadruplex DNA [2]): 1.6 µM
Kd [3]: > 20 µM
Kd [4]: 2.7 µM
Kd [5]: 9.9 µM
Kd [6]: 5.8 µM
Kd [7]: > 20 µM
Kd (Quadruplex DNA [8]): > 20 µM
ΔTm (Quadruplex DNA [1]): 18.4 °C
SMILES: CCn1c2ccccc2c2cc(-c3nc(-c4ccc(N5CCN(C)CC5)cc4)c(-c4ccc(N5CCN(Cc6cn([C@@H]7O[C@H](CO)[C@H](O)[C@H](O)[C@H]7O)nn6)CC5)cc4)[nH]3)ccc21 (single isomer, unassigned)

Kd (RNA): > 20 µM
Kd (Quadruplex DNA [2]): 1.9 µM
Kd [3]: > 20 µM
Kd [4]: 3.3 µM
Kd [5]: 11.8 µM
Kd [6]: 7 µM
Kd [7]: > 20 µM
Kd (Quadruplex DNA [8]): > 20 µM
ΔTm (Quadruplex DNA [1]): 15.8 °C
SMILES: CCn1c2ccccc2c2cc(-c3nc(-c4ccc(N5CCN(C)CC5)cc4)c(-c4ccc(N5CCN(Cc6cn([C@@H]7O[C@H](CO)[C@@H](O)[C@H](O)[C@H]7O)nn6)CC5)cc4)[nH]3)ccc21 (single isomer, unassigned)

ΔTm (Quadruplex DNA [1]): 6.8 °C
SMILES: CCn1c2ccccc2c2cc(-c3nc(-c4ccc(N5CCN(C)CC5)cc4)c(-c4ccc(N5CCN(C)CC5)cc4)n3-c3ccc(OCCCOC(C)=O)cc3)ccc21

ΔTm (Quadruplex DNA [1]): 11.3 °C
SMILES: CCn1c2ccccc2c2cc(-c3nc(-c4ccc(N5CCN(C)CC5)cc4)c(-c4ccc(N5CCN(C)CC5)cc4)n3CCO[C@@H]3O[C@H](CO)[C@H](O)[C@H](O)[C@H]3O)ccc21 (single isomer, unassigned)

ΔTm (Quadruplex DNA [1]): 14.6 °C
SMILES: CCn1c2ccccc2c2cc(-c3nc(-c4ccc(N5CCN(C)CC5)cc4)c(-c4ccc(N5CCN(C)CC5)cc4)n3-c3ccc(OCCCOC4(C)O[C@H]5O[C@H](CO)[C@@H](O)[C@H](O)[C@H]5O4)cc3)ccc21 (single isomer, unassigned)

ΔTm (Quadruplex DNA [1]): 14.7 °C
SMILES: CCn1c2ccccc2c2cc(-c3nc(-c4ccc(N5CCN(C)CC5)cc4)c(-c4ccc(N5CCN(C)CC5)cc4)n3CCO[C@@H]3O[C@H](CO)[C@@H](O)[C@H](O)[C@H]3O)ccc21 (single isomer, unassigned)

ΔTm (Quadruplex DNA [1]): 9.2 °C
SMILES: CCn1c2ccccc2c2cc(-c3nc(-c4ccc(N5CCN(C)CC5)cc4)c(-c4ccc(N5CCN(C)CC5)cc4)n3-c3ccc(OCCCO)cc3)ccc21

ΔTm (Quadruplex DNA [1]): 10.3 °C
SMILES: COc1ccc(-n2c(-c3ccc4c(c3)c3ccccc3n4Cc3cn([C@@H]4O[C@H](CO)[C@@H](O)[C@H](O)[C@H]4O)nn3)nc(-c3ccc(N4CCN(C)CC4)cc3)c2-c2ccc(N3CCN(C)CC3)cc2)cc1 (single isomer, unassigned)

The remaining lines, values behind:

SMILES: CCn1c2ccccc2c2cc(-c3nc(-c4ccc(N5CCN(C)CC5)cc4)c(-c4ccc(N5CCN(C)CC5)cc4)n3CCO[C@@H]3O[C@H](COC(C)=O)[C@H](OC(C)=O)[C@H](OC(C)=O)[C@H]3OC(C)=O)ccc21 (single isomer, unassigned)
ΔTm (Quadruplex DNA [1]): 9.3 °C

SMILES: CCn1c2ccccc2c2cc(-c3nc(-c4ccc(N5CCN(C)CC5)cc4)c(-c4ccc(N5CCN(C)CC5)cc4)n3CCOCCO[C@@H]3O[C@H](CO)[C@@H](O)[C@H](O)[C@H]3O)ccc21 (single isomer, unassigned)
Kd (RNA): > 20 µM
Kd (Quadruplex DNA [2]): 3.5 µM
Kd [3]: > 20 µM
Kd [4]: 13.7 µM
Kd [5]: > 20 µM
Kd [6]: 12.9 µM
Kd [7]: > 20 µM
Kd (Quadruplex DNA [8]): > 20 µM
ΔTm (Quadruplex DNA [1]): 16.3 °C

SMILES: CCn1c2ccccc2c2cc(-c3nc(-c4ccc(N5CCN(C)CC5)cc4)c(-c4ccc(N5CCN(C)CC5)cc4)n3-c3ccc(O[C@@H]4O[C@H](COC(C)=O)[C@@H](OC(C)=O)[C@H](OC(C)=O)[C@H]4OC(C)=O)cc3)ccc21 (single isomer, unassigned)
ΔTm (Quadruplex DNA [1]): 10.7 °C

SMILES: CCn1c2ccccc2c2cc(-c3nc(-c4ccc(N5CCN(C)CC5)cc4)c(-c4ccc(N5CCN(C)CC5)cc4)n3CCOCCO)ccc21
ΔTm (Quadruplex DNA [1]): 11.6 °C

SMILES: CCn1c2ccccc2c2cc(-c3nc(-c4ccc(N5CCN(C)CC5)cc4)c(-c4ccc(N5CCN(C)CC5)cc4)n3-c3ccc(OCc4ccccc4)cc3)ccc21
ΔTm (Quadruplex DNA [1]): 7.6 °C

SMILES: CCn1c2ccccc2c2cc(-c3nc(-c4ccc(N5CCN(C)CC5)cc4)c(-c4ccc(N5CCN(C)CC5)cc4)n3-c3ccc(OCCOCCOC(C)=O)cc3)ccc21
Kd (RNA): > 20 µM
Kd (Quadruplex DNA [2]): 4 µM
Kd [3]: > 20 µM
Kd [4]: 19.1 µM
Kd [5]: > 20 µM
Kd [6]: 10.2 µM
Kd [7]: > 20 µM
Kd (Quadruplex DNA [8]): > 20 µM
ΔTm (Quadruplex DNA [1]): 21.2 °C

SMILES: CCn1c2ccccc2c2cc(-c3nc(-c4ccc(N5CCN(C)CC5)cc4)c(-c4ccc(N5CCN(Cc6cn([C@@H]7O[C@H](COC(C)=O)[C@H](OC(C)=O)[C@H](OC(C)=O)[C@H]7OC(C)=O)nn6)CC5)cc4)[nH]3)ccc21 (single isomer, unassigned)
ΔTm (Quadruplex DNA [1]): 15.1 °C

SMILES: CCn1c2ccccc2c2cc(-c3nc(-c4ccc(N5CCN(C)CC5)cc4)c(-c4ccc(N5CCN(C)CC5)cc4)n3CCOCCO[C@@H]3O[C@H](COC(C)=O)[C@H](OC(C)=O)[C@H](OC(C)=O)[C@H]3OC(C)=O)ccc21 (single isomer, unassigned)
ΔTm (Quadruplex DNA [1]): 10.3 °C

SMILES: CCn1c2ccccc2c2cc(-c3nc(-c4ccc(N5CCN(C)CC5)cc4)c(-c4ccc(N5CCN(C)CC5)cc4)n3CCOC(C)=O)ccc21
ΔTm (Quadruplex DNA [1]): 11.1 °C

SMILES: CCn1c2ccccc2c2cc(-c3nc(-c4ccc(N5CCN(C)CC5)cc4)c(-c4ccc(N5CCN(C)CC5)cc4)n3CCOCCO[C@H]3OC(CO)C(O)[C@@H](O)[C@@H]3O)ccc21 (single isomer, unassigned)
ΔTm (Quadruplex DNA [1]): 14.9 °C

SMILES: CCn1c2ccccc2c2cc(-c3nc(-c4ccc(N5CCN(C)CC5)cc4)c(-c4ccc(N5CCN(C)CC5)cc4)n3-c3ccc(OCCOCCO[C@@H]4O[C@H](COC(C)=O)[C@@H](OC(C)=O)[C@H](OC(C)=O)[C@H]4OC(C)=O)cc3)ccc21 (single isomer, unassigned)
ΔTm (Quadruplex DNA [1]): 14.2 °C

SMILES: CCn1c2ccccc2c2cc(-c3nc(-c4ccc(N5CCN(C)CC5)cc4)c(-c4ccc(N5CCN(C)CC5)cc4)n3CCOCCOC(C)=O)ccc21
ΔTm (Quadruplex DNA [1]): 10.4 °C

SMILES: CCn1c2ccccc2c2cc(-c3nc(-c4ccc(N5CCN(C)CC5)cc4)c(-c4ccc(N5CCN(C)CC5)cc4)n3CCOCCO[C@@H]3O[C@H](COC(C)=O)[C@@H](OC(C)=O)[C@H](OC(C)=O)[C@H]3OC(C)=O)ccc21 (single isomer, unassigned)
ΔTm (Quadruplex DNA [1]): 11.4 °C

SMILES: CCn1c2ccccc2c2cc(-c3nc(-c4ccc(N5CCN(C)CC5)cc4)c(-c4ccc(N5CCN(Cc6cn([C@@H]7O[C@H](COC(C)=O)[C@@H](OC(C)=O)[C@H](OC(C)=O)[C@H]7OC(C)=O)nn6)CC5)cc4)[nH]3)ccc21 (single isomer, unassigned)
ΔTm (Quadruplex DNA [1]): 15.4 °C

SMILES: CCn1c2ccccc2c2cc(-c3nc(-c4ccc(N5CCN(C)CC5)cc4)c(-c4ccc(N5CCN(C)CC5)cc4)n3-c3ccc(OCCOCCO[C@@H]4O[C@H](COC(C)=O)[C@@H](OC(C)=O)[C@H](OC(C)=O)[C@H]4NC(=O)C(F)(F)F)cc3)ccc21 (single isomer, unassigned)
ΔTm (Quadruplex DNA [1]): 14 °C

SMILES: CCn1c2ccccc2c2cc(-c3nc(-c4ccc(N5CCN(C)CC5)cc4)c(-c4ccc(N5CCN(Cc6cn(CCOCCO)nn6)CC5)cc4)[nH]3)ccc21
Kd (RNA): > 20 µM
Kd (Quadruplex DNA [2]): 1.2 µM
Kd [3]: > 20 µM
Kd [4]: 2.8 µM
Kd [5]: 14.5 µM
Kd [6]: 5.6 µM
Kd [7]: > 20 µM
Kd (Quadruplex DNA [8]): > 20 µM
ΔTm (Quadruplex DNA [1]): 18.7 °C

SMILES: CCn1c2ccccc2c2cc(-c3nc(-c4ccc(N5CCN(C)CC5)cc4)c(-c4ccc(N5CCN(C)CC5)cc4)n3-c3ccc(OCCCO[C@@H]4O[C@H](COC(C)=O)[C@H](OC(C)=O)[C@H](OC(C)=O)[C@H]4OC(C)=O)cc3)ccc21 (single isomer, unassigned)
ΔTm (Quadruplex DNA [1]): 10.9 °C

SMILES: CCn1c2ccccc2c2cc(-c3nc(-c4ccc(N5CCN(C)CC5)cc4)c(-c4ccc(N5CCN(C)CC5)cc4)n3-c3ccc(OCCOCCO[C@@H]4O[C@H](COC(C)=O)[C@H](OC(C)=O)[C@H](OC(C)=O)[C@H]4OC(C)=O)cc3)ccc21 (single isomer, unassigned)
ΔTm (Quadruplex DNA [1]): 12.8 °C

SMILES: CCn1c2ccccc2c2cc(-c3nc(-c4ccc(N5CCN(C)CC5)cc4)c(-c4ccc(N5CCN(C)CC5)cc4)n3-c3ccc(OCCCO[C@@H]4O[C@H](COC(C)=O)[C@@H](OC(C)=O)[C@H](OC(C)=O)[C@H]4OC(C)=O)cc3)ccc21 (single isomer, unassigned)
ΔTm (Quadruplex DNA [1]): 13.7 °C

SMILES: CCn1c2ccccc2c2cc(-c3nc(-c4ccc(N5CCN(C)CC5)cc4)c(-c4ccc(N5CCN(C)CC5)cc4)n3CCO[C@@H]3O[C@H](COC(C)=O)[C@@H](OC(C)=O)[C@H](OC(C)=O)[C@H]3OC(C)=O)ccc21 (single isomer, unassigned)
ΔTm (Quadruplex DNA [1]): 7.1 °C
